# Legend:
# [1] = test system: GICs (glioma initiating cells) / GBM neurospheres; assay: Self-renewal assay of GBM neurospheres (GICs derived from patients); type: cell-based, human; settings: added with 100 pM TGFβ1; 2 μM TβRI inhibitor, anti-LIF neutralizing antibody or 0.5 pM P6; absence of EGF and FGF
# Experimental: FIG. 1. Effect of TGFβ on the self-renewal of GIC derived from patients. (A) Representative images of PCTCs and neurospheres of GBM generated from samples of 3 different patients with GBM (GBM1, GBM2, GBM3). (B) Musashi-1 (Msi-1), Sox2, Nestin and β-actin were determined by means of RT-PCR analysis of PCTCs and neurospheres of 3 samples of human GBM. (C) 100,000 neurosphere (nsph.) or PCTC cells obtained from samples of GBM1, GBM2 and GBM3 tumors were intracranially inoculated in three Balbc nu/nu mice in each case. Magnetic resonance imaging (MRI) studies were performed on days 30-40 in each mouse. The images represent an example of mice inoculated with neurosphere or PCTC cells obtained from GBM1. The mice were weighed twice a week. The graph represents mice inoculated with cells derived from GBM1. (D and E) Neurosphere cells of the indicated GBMs were incubated in the absence of growth factors with 100 pM TGFβ1 and/or 2 μM TβRI inhibitor for 7 days and the number of newly formed neurospheres (D) and the total number of cells (E) were determined. (F) Representative images of GBM1 neurospheres treated as indicated in D and E.
# FIG. 6. LIF mediates the increase of self-renewal of GIC by TGFβ. (A, B) GBM1, GBM2 and GBM3 neurosphere cells were treated with 100 pM TGFβ1, 20 ng/ml LIF and/or anti-LIF neutralizing antibody and 0.5 pM P6 in the absence of EGF and FGF and the number of newly formed neurospheres (A) or the total number of cells (B) was determined. (C) Representative images of GBM1 neurospheres treated as indicated in A and B.
# The self-renewal of the neurospheres was evaluated by seeding an identical number of cells at a very low density in wells of a 96-well plate. The cells were treated, in the absence of growth factors, with the indicated compounds and the total number of new neurospheres formed after 7 days in culture was counted (Lee et al. (2008) Cancer Cell 13, 69-80; Reynolds and Weiss, (1996) Dev Biol 175, 1-13; Seaberg and van der Kooy, (2002) J Neurosci 22, 1784-1793).
# It was decided to evaluate the effect of TGFβ on the capacity for self-renewal of GICs following a well described protocol based on the capacity of GICs to generate neurospheres (Reynolds and Weiss, 1996, Dev Biol. 175:1-13; Seaberg and van der Kooy, 2002, J Neurosci 22:1784-1793). The neurospheres derived from patients were disassociated into individual cells, treated with TGFβ or left untreated for 7 days in the absence of growth factors and the newly formed neurospheres and the total number of cells were counted. Following this protocol, the effect of TGFβ on the capacity for self-renewal of the GICs derived from three different patients was evaluated. […] These effects were blocked when an TGFβ I receptor inhibitor (TβRI) was added at the same time as TGFβ.
# It was decided to assess whether LIF and JAK-STAT pathway mediated the increase of self-renewal of GICs by TGFβ. For this purpose, the neutralizing antibody against LIP and P6 was used to specifically block the effect of the secreted LIP on cells treated with TGFβ. The neurospheres were disassociated into individual cells and were treated with TGFβ, recombinant LIF, anti-LIF antibody and/or P6. The newly formed neurospheres and the total number of cells were counted. […] The treatment with the neutralizing antibody of LIP decreased the induction of the self-renewal of GICs by TGFβ.
# [2] = test system: STAT3 phosphorylation (JAK-STAT pathway); assay: p-STAT3 Western blotting in GBM1 neurospheres; type: cell-based, human
# Experimental: FIG. 5. TGFβ induces the LIF-JAK-STAT pathway in GEM neurospheres derived from patients. (A) The levels of p-STAT3 and STAT3 were determined by means of Western blotting of neurospheres of the sample of GBM1 treated with 20 ng/ml LIF for the indicated time periods. (B) The neurospheres of the sample of GBM1 were treated with 20 ng/ml LIF and/or 0.5 pM P6 for 15 minutes and the levels of total p-STAT3 and STAT3 were determined by means of Western blotting. (C) The neurospheres of the sample of GBM1 were treated with 100 pM TGFβ1 or the 2 pM TβRI inhibitor for 4 hours in the absence of EFG and FGF and the levels of p-STAT3, STAT3, p-Smad2, Smad2 and α-tubulin were determined by means of Western blotting. (D) the neurospheres of the sample of GBM1 were treated with 100 pM TGFβ1, 0.5 μM P6 or the blocking antibody against LIF for 4 hours in the absence of EGF and FGF and the levels of total p-STAT3 and STAT3 were determined by means of Western blotting.
# Genomic DNA of U373MG was used to amplify the −634/+32 region of the human LIF promoter which was cloned into the pGL2-basic luciferase vector. The deletion constructs (−267/+32), and (−73/+32) were generated by means of digestion of the construct (−634/+32). Two point mutations were introduced in positions −183 bp and −184 bp in the construct (−267/+32) to interrupt the Smad binding element (SBE) and generate the construct (−267/+32) mutSBE. TGFβ1, TGFβ2, TGFβ3 (R&D Systems), TβRI inhibitor (SB431542, Tocris), LIF (Chemicon), the neutralizing antibodies against LIF (R&D), JAK inhibitor (tetracyclic pyridone 6 (P6) Calbiochem), the assembly of SMART siRNAs targeted to Smad2, Smad3 and Smad4 (Dharmacon), and the control siRNA siGlo (Dharmacon) were used at the indicated concentrations. The antibodies specific against p-Smad2, Smad2, p-STAT3 (p-Tyr705) and total STAT3 (Cell Signalling) and against Smad2, Smad3 and Smad4 (Hata et al., (2000) Cell 100, 229-240) were used for Western blotting.
# In order to distinguish whether the LIF signaling pathway is functional in GEM neurospheres, the neurospheres were treated with recombinant LIF and the levels of phosphorylation of the downstream substrate of the LIF receptor complex, STAT3, were determined. […] Furthermore, the induction of p-STAT3 was prevented by the presence of a pharmacological JAK-specific, tetracyclic pyridone 6 (P6) (Pedranzini et al., 2006, Cancer Res, 66: 9714-9721; Thompson et al., 2002, Bioorg Med Chem Lett, 12:1219-1223) (FIG. 5B). […] It was decided to assess whether LIP was mediating the induction of p-STAT3 by TGFβ. For this purpose, a neutralizing antibody against LIF was used to specifically block the effect of secreted LIP on cells treated with TGFβ. The presence of the neutralizing antibody of LIP decreased the induction of p-STAT3 by TGFβ. Furthermore, the levels of p-STAT3 in cells treated with TGFβ were repressed by means of the treatment with P6 (FIG. 5D).
structure (smiles),measurement,setting,value
"CC(C)(C)c1nc2c3ccc(F)cc3c3c(=O)[nH]ccc3c2[nH]1 [P6, tetracyclic pyridone 6]","effect on the induction of self-renewal of GICs by TGFβ (number of neurospheres, total number of cells)",[1],repressed
same,effect on the induction of p-STAT3 by TGFβ,"[2]; 100 pM TGFβ1, 4 hours, absence of EGF and FGF, 2 pM TβRI inhibitor, 0.5 μM P6 or blocking antibody against LIF",repressed
same,effect on the induction of p-STAT3 by LIF,"[2]; 20 ng/ml LIF and 0.5 pM P6, 15 minutes",prevented
